# Assay results published in US9708628B2, “Cationic lipid having improved intracellular kinetics” (NOF CORPORATION, priority 2011, dated 2017).
# How the values were obtained:
# HT1080 cells [1] = assay: Intracellular uptake pathway: influence of sucrose, amiloride, filipin on uptake amount; type: cell-based; details: 0.3M sucrose, 1 mM amiloride, 3 hr
# Procedure: MENDs of B-2-4 (Example 4), B-2 (Example 1) were prepared according to [Experimental Example 1] (1), (2), [Experimental Example 18]. For the preparation, PEG2000-DMG was used as PEG lipid, and MEND solutions corresponding to 0.55 mM of the lipid concentration were prepared. pDNA was labeled with fluorescence according to the method described in [Experimental Example 15] (2).
# HT1080 cells were plated on a 6-well plate at 2×10^5 cells/2 mL/well 24 hr before. The medium was changed to DMEM (FBS+) containing filipin at a final concentration of […] 30 min before transfection. The medium was changed to DMEM (FBS+) containing a final concentration of 0.3M sucrose, and 1 mM amiloride 15 min before transfection. For transfection, various MENDs were added to the dish at 1.6 μg/2 mL/dish based on the pDNA amount. 3 hr after the transfection, the intracellular pDNA amount was measured by the method described in [Experimental Example 19] (1).
# HT1080 cells [2] = assay: Intracellular uptake pathway: influence of sucrose, amiloride, filipin on gene expression activity; type: cell-based; details: 0.3M sucrose, 1.5 mM amiloride
# Procedure: Using compositions of B-2-4 (Example 4):DOPE:Chol=3:3:4, B-2 (Example 1):SOPE:Chol=5:3:2 as lipid, MENDs were prepared according to [Experimental Example 1] (1), (2). For the preparation, PEG2000-DMG was used as PEG lipid, and MEND solutions corresponding to 0.55 mM of the lipid concentration were prepared.
# HT1080 cells were plated on a 24-well plate at 4×10^4 cells/500 μL/well 24 hr before. The medium was changed to DMEM (FBS+) containing filipin at a final concentration of […] 30 min before transfection. The medium was changed to DMEM (FBS+) containing a final concentration of 0.3M sucrose, and 1.5 mM amiloride 15 min before transfection. For transfection, various MENDs were added to the well at 0.8 μg/500 μL/well based on the pDNA amount. Thereafter, the gene expression activity was evaluated by the method described in [Experimental Example 4] (2).
# HT1080 cells [3] = assay: Intracellular kinetics (nuclear transport), confocal microscopy; type: cell-based; details: 3 hr after transfection
# Description: For MEND preparation, Rhodamine-labeled pDNA prepared by the method of [Experimental Example 1] (4) was used. For preparation of MEND encapsulating the rhodamine-labeled pDNA, the pDNA solution described in [Experimental Example 1] (1) was completely replaced by rhodamine-labeled pDNA. In addition, the lipid constituting MEND was labeled with fluorescence by the method described in [Experimental Example 1] (3). MENDs having a composition of B-2-4 (Example 4):DOPE:Chol=3:3:4, B-2 (Example 1):SOPE:Chol=5:3:2 were prepared by the method described in [Experimental Example 1] (2). For the preparation, PEG2000-DMG was used as PEG lipid, and MEND solutions corresponding to 0.55 mM of the lipid concentration were prepared.
# HT1080 cells were plated on a glass bottom dish at 5×10^4 cells/2 mL/dish 24 hr before. MEND was diluted with DMEM (FBS 10%+) to achieve pDNA 1.6 μg/2 mL and transfected into cells. After 3 hr, hoechst33342 (1 μL) was added and, 10 min later, the cells were washed twice with heparin solution (20 units/mL, 2 mL). Krebs buffer (1 mL) was added, and the image was obtained by a confocal laser scan microscope.
# HT1080 cells [4] = assay: Inhibitory effect of GA (ginkgolic acid) on gene expression; type: cell-based; details: 0, 25, 50, 100 μM GA
# Procedure: MENDs of B-2-4 (Example 4), B-2 (Example 1) were prepared according to [Experimental Example 16], [Experimental Example 1] (1), (2). For the preparation, PEG2000-DMG was used as PEG lipid, and MEND solutions corresponding to 0.55 mM of the lipid concentration were prepared.
# HT1080 cells were plated on a 3.5 cm cell culture dish at 4×10^4 cells/2 mL/dish 24 hr before, various MENDs were diluted with DMEM (FBS 10%+, Phenol red free) containing a final concentration of 200 μM of D-luciferin potassium and 0, 25, 50, 100 μM of GA (Calbiochem) to achieve 1.6 μg/2 mL/dish based on the pDNA amount and transfection was performed. According to the Kronos Dio package insert, the luminescence amount was measured for 2 min every 20 min and taken as the luciferase activity (RLU/2 min).
# [5] = tested on: Rabbit Reticulocyte Lysate Systems; assay: Influence on in vitro translation reaction (luciferase mRNA); type: biochemical; details: MEND 0.0625-0.25 μg per 1 μL mRNA solution, 30° C., 90 min
# Procedure: MENDs having a composition of B-2:SOPE:Chol=5:3:2 were prepared by the method described in [Experimental Example 1] (2). For the preparation, PEG2000-DMG was used as PEG lipid, and MEND solutions corresponding to 0.55 mM of the lipid concentration were prepared. For cationic MEND, lipids having a composition of DOTAP:DOPE:Chol:=3:4:3 were used, and the cationic MEND was prepared according to the method described in [Experimental Example 1] (3).
# Luciferase-mRNA solution was diluted to 0.005 μg/μL. Various MEND solutions were added in 0.0625, 0.125, 0.25 μg relative to 1 μL of mRNA solution to adjust the total amount to 6.5 μL. A mixture of RRL (Rabbit Reticulocyte Lysate, 17.5 μL), AAM (Amino Acid Mixture)-Met (0.25 μL), AAM-Leu (0.25 μL), and RRI (Recombinant RNase Inhibitor, 0.5 μL) was added, and the mixture was stood at 30° C. for 90 min.
# 10 μL thereof was mixed with a Luciferase assay substrate (50 μL), and the luciferase activity in a given time was measured by a luminometer. […] Thereafter, the absorbance at 562 nm was measured, and the protein amount of the sample was calculated from the absorbance of a BSA solution having a known concentration. The luciferase activity (RLU) was adjusted by dividing with protein amount (mg), and the luciferase activity per cellular protein amount (RLU/mg protein) was calculated.
SMILES,"intracellular uptake with sucrose, amiloride, filipin (HT1080 cells [1])","gene expression with sucrose, amiloride, filipin (HT1080 cells [2])",intracellular localization (HT1080 cells [3]),inhibitory effect of GA on gene expression activity (HT1080 cells [4]),inhibitory effect on in vitro translation reaction [5]
CC1=C(/C=C/C(C)=C/C=C/C(C)=C/C(=O)OCCCN(C)CCSSCCN(C)CCCOC(=O)/C=C(C)/C=C/C=C(C)/C=C/C2=C(C)CCCC2(C)C)C(C)(C)CCC1 [Example B-2-4],sucrose- and amiloride-sensitive,inhibited by amiloride,accumulate near the nucleus,higher inhibitory effect on B-2-4 than on B-2,
CCCCCCCCCCCCCC(=O)OCCCN(C)CCSSCCN(C)CCCOC(=O)CCCCCCCCCCCCC [Example B-2],sucrose- and amiloride-sensitive,inhibited by sucrose and amiloride,diffused in the cell,higher inhibitory effect on B-2-4 than on B-2,not observed
"CCCCCCCC/C=C\CCCCCCCC(=O)OCC(C[N+](C)(C)C)OC(=O)CCCCCCC/C=C\CCCCCCCC (stereo not shown) [DOTAP, reference compound]",,,,,significant inhibitory effect
